How the values were obtained:
Type in all cases: in vivo
[1] = tested on: root lesion nematode (RLN), Pratylechus penetrans; experiment: Root Lesion Nematode (RLN) in-vitro mortality test; details: mortality after 48 hours, about 25 °C, 0.5% DMSO in water
Method: The following Root Lesion Nematode (RLN) test was conducted to compare the activities of S1, R1, and B1.
We carried out an in-vitro experiment to compare activity of S1, R1, and B1 with each other against the root lesion nematode (RLN), Pratylechus penetrans. Each of S1, R1, and B1 were tested at six rates: 62.5, 15.6, 4, 1, 0.25, and 0 ppm (UTC) with three replications of each treatment. Equal volume of nematode suspension was added to an equal volume of each of S1, R1, and B1 dissolved in 0.5% DMSO (dimethyl sulfoxide) in water in 25 mL vials. The treated nematode suspension was incubated at room temperature (about 25 °C) on a shaker (95 RPM). Aliquots of 1 mL of the nematode suspension was evaluated under a microscope for mortality after 48 hours. RLN were counted, and the number of dead and active nematodes was used to calculate % mortality from which lethal concentration (LC) values were generated.

[2] = tested on: root knot nematode (RKN), Meloidogyne incognita; experiment: Root Knot Nematode (RKN) test on cucumber seedlings in greenhouse, Galling Index converted to % control, EC by probit analysis; details: based on % control from Galling Index, cucumber, 4,000 J2s, 14 days in Greenhouse, about 27 °C
Method: The following Root Knot Nematode (RKN) test was conducted to compare the activities of S1, R1, and B1.
We conducted an experiment to evaluate comparative bioactivity of S1, R1, and B1 against the root knot nematode (RKN), Meloidogyne incognita. Each of S1, R1, and B1 were tested at […]: 125, 62.5, 31.25, 15.6, 7.8, 3.9, and 2 ppm. Cucumber seeds (Cucumis sativus) were planted in a sandy loam soil in 3-inch pots. After 6 days of germination, the seedlings were treated with the test compounds dissolved in 5% acetone in water. The treated plants were inoculated with 4,000 second stage juveniles (J2s) of M. incognita. Each experimental unit was replicated three times. The inoculated plants were kept in a Greenhouse for 14 days (about 27 °C) before evaluating the amount of root damage (galls) called Galling Index (GI) based on a scale of 0 - 10; where 0 = no galls (100% control), and 10 = maximum galls (no control). The GI was converted to % control using the formula (10 - GI) x 10; where GI = Gall Index. Effective concentration (EC) values based on the % control of the nematode by S1, R1 and B1 were calculated by probit analysis.

[3] = tested on: soybean cyst nematode (SCN): Heterodera glycines second stage juveniles (J2); experiment: Soybean Cyst Nematode (SCN) in-vitro mortality test; details: mortality after 48 hours of incubation, about 25 °C, 0.5% DMSO in water; probit analysis
Method: The following Soybean Cyst Nematode (SCN) test was conducted to compare the activities of S1, R1, and B1.
We carried out an in-vitro experiment to compare activity of S1, R1, and B1 with each other against the soybean cyst nematode (SCN): Heterodera glycines second stage juveniles (J2). Each of S1, R1, and B1 were tested at six rates: 62.5, 15.6, 4, 1, 0.25, and 0 ppm (untreated control, UTC) with three replications of each treatment. Equal volume of nematode suspension was added to an equal volume of compound dissolved in 0.5% DMSO (dimethyl sulfoxide) in water. The nematode plus compound was incubated at room temperature (about 25 °C) on a shaker at 95 revolutions per minutes (RPM). Aliquots of 0.5 milliliters (mL) of the nematode suspension were evaluated under a microscope for mortality after 48 hours of incubation. SCN J2s were counted, and the number of dead and active nematodes was used to calculate % SCN mortality which was used to generate lethal concentration (LC) values by probit analysis.

M. incognita = experiment: Residuality test in soil: treated soil aged four weeks, then cucumber seedlings transplanted and inoculated; details: 1250 g ai/ha applied to bare sandy loam soil, four weeks before transplanting and inoculation; 14 days; four replicates
Method: The molecules in Example Two were compared in a residuality test.
A residuality test was conducted to compare the residual control or persistence of S 1, R1, C1, C2, C3, C4, and C5 in soil. Each compound was applied to a bare sandy loam soil (without plant or nematode) in a 3-inch pot at 1250 g ai/ha. The treated soils were kept in a Greenhouse (temperature 27 °C) under regular irrigation for four weeks. At the end of the four weeks, six-day old cucumber (Cucumis sativus) seedlings were transplanted into the treated soil and inoculated with 4,000 second stage juveniles of M. incognita. Each treatment was replicated four times. The inoculated plants were kept in a Greenhouse for 14 days (temperature 27 °C) before evaluating the amount of root damage (galls) called Galling Index (GI) based on a scale of 0 - 10; where 0 = no galls (100% nematode control), and 10 = maximum galls (no nematode control). The GI were converted to % control using the formula ((10 - GI) x 10); where GI = Gall Index. The data were analyzed by Analysis of Variance using JMP (John's Macintosh Project) statistical software and the means were separated using Tukey's HSD (α = 0.05).

[4] = tested on: root knot nematode, Meloidogyne incognita; experiment: Root knot nematode comparative bioactivity test at a single rate, drench application on cucumber seedlings; details: 600 g ai/ha, 14 days after inoculation, (10 - GI) x 10, three replicates
Method: We carried out an experiment to evaluate comparative bioactivity of S 1, C1, C2, C3, C4, and C5 against the root knot nematode, Meloidogyne incognita. Each compound was tested at 600 grams of active ingredient per hectare (g ai/ha) and was replicated three times. Cucumber seeds (Cucumis sativus) were planted in a sandy loam soil in 3-inch pots. After six (6) days of planting, the seedlings were treated with the test compounds dissolved in 5% acetone in water by drench application. The plants were inoculated with 4,000 second stage juveniles (J2s) of M. incognita. The inoculated plants were kept in a Greenhouse for 14 days (temperature 27 °C) before evaluating the amount of root damage (galls) called Galling Index (GI) based on a scale of 0 - 10; where 0 = no galls (100% nematode control), and 10 = maximum galls (no nematode control). The GI was converted to % nematode control using the formula ((10 - GI) x 10); where GI = Gall Index. The data were analyzed by Analysis of Variance using JMP (John's Macintosh Project) statistical software and the means were separated using Tukey's HSD (α = 0.05).

Row | SMILES | LC50 (ppm) [1] [ppm] | EC50 (ppm) [2] [ppm] | LC50 (ppm) [3] [ppm] | Mean Percent Control (M. incognita) [%] | Mean Percent Control [4] [%]
1 | CCC(CC)C(C)NC(=O)c1ccoc1Cl (racemic) [Molecule B1, 2-chloro-N-(3-ethylpentan-2-yl)furan-3-carboxamide] | 24.72 | 16.84 | 23.28 | – | –
2 | CC(C)C[C@H](C)NC(=O)c1ccoc1Cl [Molecule C2] | – | – | – | 25.0 | 54
3 | CC(C)[C@H](C)NC(=O)c1ccoc1Cl [Molecule C3] | – | – | – | 22.5 | 67
4 | C[C@H](NC(=O)c1ccoc1Cl)C1CCCCC1 [Molecule C4] | – | – | – | 2.5 | 25
5 | C[C@H](NC(=O)c1ccoc1Cl)C1CCCC1 [Molecule C5] | – | – | – | 22.5 | 50
6 | CCC(CC)[C@@H](C)NC(=O)c1ccoc1Cl [Molecule R1, (R)-2-chloro-N-(3-ethylpentan-2-yl)furan-3-carboxamide] | >62.5 | >125 | >62.5 | 7.5 | –
7 | CCC(CC)[C@H](C)NC(=O)c1ccoc1Cl [Molecule S1, (S)-2-chloro-N-(3-ethylpentan-2-yl)furan-3-carboxamide] | 6.89 | 4.95 | 1.799 | 77.5 | 84

— patent publication EP4389739A1, “MOLECULE HAVING PESTICIDAL UTILITY AND PROCESSES RELATED THERETO” (Corteva Agriscience LLC, priority 2022, dated 2024)
